# Legend:
# NCIH460 = test: MTT cytotoxicity, NCIH460 lung; format: cell-based; conditions: Homo sapiens, NCI-H460, 72 h; 3 Days; read-out: CD50 (μM) NCIH460
# Description: (§1) Cell killing was evaluated using the colorimetric MTT assay. The assay measures the formation of a colored product from a chromogenic precursor, the tetrazole 3-[4,5-dimethylthiazol-2-yl]-2,5 diphenyltetrazolium bromide (MTT). The yellow MTT is reduced to purple formazan in the mitochondria of living cells. A solubilization solution (typically dimethyl sulfoxide or sodium dodecyl sulfate in dilute hydrochloric acid) is added to dissolve the insoluble purple formazan product into a colored solution. The absorbance of this colored solution is quantified by measuring at a certain wavelength (usually between 500 and 600 nm) by a spectrophotometer. The amount of purple formazan product generated is proportional to the number of viable cells (Mosmann, T., 1983, J. Immunol. Meth. 65:55-63; Wilson, A. P., Cytotoxicity and Viability Assays. In: Animal Cell Culture: A Practical Approach, 3rd ed. (Masters, J R W, ed.) Oxford University Press: Oxford, Vol. 1, pp. 175-219. 2000). This MTT assay is used widely to assess the cytotoxicity and selectivity of compounds such as anti-cancer drugs. The assay is suitable for rapid toxicity characterization of a test agent such as a drug formulation. […] A lower CD50 indicates a greater cytotoxic activity (as a lower amount of the agent is needed to achieve a fixed level of cytotoxicity). […]
# Vero cells = test: Cytotoxicity (CD50) on Vero cells; format: cell-based; conditions: 48 hours of exposure
# Source text: See Example II for tumor cell cytotoxicity of these compounds. […] NAB group 32 contains two compounds, Tolan-2 (also designated herein as KST-201) and Stil-2. Based on the NAB, they were classified as topological isomers. However, chemically they differ because Stil-2, a […], contained a double bonded linker, while Tolan-2 contained a triple bonded linker. The cytotoxicity of the two molecules on Vero cells differed markedly: Tolan-2 was less toxic than Stil-2.
# caspase-3 = test: Caspase-3 activity in DU145 cells (fluorimetric immunosorbent enzyme assay); format: cell-based, human
# Description: FIG. 5. Measurement of Caspase-3 Activity in Resveratrol-treated DU145 cells. […] Activity of proteolytic cleavage was determined fluorometrically using Ac-DEVD-AFC as a substrate for activated caspase-3 immobilized on the well surface. The results represent mean±SD of triplicate determinations. The positive control (“Post. Ctl”) was camptothecin-induced apoptosis in U937 cells.
# FIG. 6. Measurement of Caspase-3 Activity of KST-201-treated DU145 cells as a function of dose. […] Activity of proteolytic cleavage (caspase-3 activity) and other details are as above.
# FIG. 7. Time course of Caspase-3 Activation by KST201 in DU145 cells as a measure of apoptosis. DU145 cells were treated at CD50 of KST201 for 12, 24 or 48 hours. Details are as described for FIG. 5.
# The proteolytic activity of caspase-3 in DU145 cells, was measured using a fluorimetric immunosorbent enzyme assay kit. […] After washing and centrifuging, the cell pellet was collected and incubated with dithiothreitol (DTT) lysis buffer on ice. The cell lysate was then transferred to a centrifuge tube for measurement of proteolytic cleavage by caspase-3 utilizing a fluorimetric immunosorbent enzyme assay kit (Roche, Indianapolis, Ind.). Antibody against caspase-3 was diluted in the coating buffer and immobilized to the surface of 96-well plates followed by washing steps. Compound-treated cell lysates and the untreated controls were added to the plate and incubated for one hour at 37° C. Any caspase-3 in the samples was captured by the immobilized antibody. The caspase-3 enzyme cleaved its fluorogenic substrate Ac-DEVD-AFC when it was added to the wells, resulting in. free fluorescent AFC that was measured in a Fluoroskan® Ascent FL plate reader (Thermo, Waltham, Mass.) with a filter set at an excitation/emission of 390 nm/[…]. The fluorescence intensity was proportional to the concentration of AFC determined by a standard curve, generated by different dilutions of AFC standard included in the kit. The amount of activated caspase-3 in the sample was derived from this curve.
# breast cancer = test: Breast cancer prevention, skin patch (Example VIII C); format: in vivo, human; conditions: transdermal patch 10 mg to 100 mg daily, one-year study
# Description: This study investigates whether KST-201, KST-213, KST-301 and KST-401 administered transdermally each day through a skin patch aid in preventing breast cancer or metastatic cancer following cancer therapy. Patches are prepared with a lipophilic carrier which is readily absorbed through the skin (glycerol cold cream containing glycerin and peanut oil). The HT compound is mixed with the lipophilic cream such that each patch comprises 10 mg to 100 mg of active compound. The patch is applied to the skin each day, and rapid absorption occurs. After two hours, the patch is removed.
# MeWo = test: MTT cytotoxicity, MeWo melanoma; format: cell-based; conditions: Homo sapiens, 72 h, 3 Days, read-out: CD50 (μM) MeWo
# Description: as §1
# HT29 = test: MTT cytotoxicity, HT29 colon; format: cell-based; conditions: Homo sapiens, HT-29, 72 h; 3 Days; read-out: CD50 (μM) HT29
# Description: as §1
# DU145 cells = test: Flow cytometric cell cycle analysis of DU145 cells; format: cell-based, human
# Description: Initially, the mechanism(s) responsible for the antitumor activity of KST-201 were tested in the DU145 cell line. […] The cell cycle distribution of sham-treated (FIG. 4, upper left) DU145 cells or DU145 cells treated with KST-201 at 14 μM (FIG. 4, upper right), 28 μM (FIG. 4, lower left) or 56 μM (FIG. 4, lower right) were determined by flow cytometry.
# rat-organ homogenates = conditions: cited from earlier work
compound,measurement,setting,value
"Oc1ccc(C#Cc2ccc(O)cc2)cc1 [KST-201, 4,4′-dihydroxytolan]",IC50,NCIH460,42 ± 2 µM
same,CD50,Vero cells,106 µM
same,Log CD50,Vero cells,2.03
same,Caspase-3 activation,"caspase-3; 0.5×CD50, 24 hr",effectively activated caspase-3
same,Caspase-3 activity,caspase-3; 48 hours or 2×CD50,loss of caspase-3 activity
same,Caspase-3 activation,"caspase-3; CD50 concentration, 24 hr",activated significantly
same,Breast cancer or metastatic cancer in high-risk group,breast cancer,does not show any evidence of breast cancer or other metastatic cancer
same,IC50,MeWo,156 ± 2.5 µM
same,IC50,HT29,79 ± 0.8 µM
same,Phase of Cell Cycle S,"DU145 cells; 14 μM, untreated 40",28
same,Phase of Cell Cycle G0/G1,"DU145 cells; 14 μM, untreated 46",72
same,Phase of Cell Cycle G0/G1,DU145 cells; 28 μM,77
same,Phase of Cell Cycle G2/M,DU145 cells; 28 μM,3
same,Phase of Cell Cycle S,DU145 cells; 28 μM,20
same,Phase of Cell Cycle G0/G1,DU145 cells; 56 μM,78
same,Phase of Cell Cycle G2/M,DU145 cells; 56 μM,4
same,Phase of Cell Cycle S,DU145 cells; 56 μM,18
same,Effect on cell cycle (in words),"DU145 cells; 14, 28 and 56 μM",G0/G1-S cell cycle arrest
"Oc1ccc(/C=C/c2cc(O)cc(O)c2)cc1 [Resveratrol, 3,5,4′-trihydroxy-trans-stilbene, reference compound]",IC50,NCIH460,43 ± 20 µM
same,CD50,Vero cells,264 µM
same,Log CD50,Vero cells,2.42
same,IC50,MeWo,185 ± 3.7 µM
same,IC50,HT29,163 ± 0.3 µM
same,"Inhibition (%) of Fe2+ − VitC induced level of MDA at 15 μM, In rat brain",rat-organ homogenates; rat brain,83.20%
same,"Inhibition (%) of Fe2+ − VitC induced level of MDA at 15 μM, In rat kidney",rat-organ homogenates; rat kidney,62.15%
same,"Inhibition (%) of Fe2+ − VitC induced level of MDA at 15 μM, In rat liver",rat-organ homogenates; rat liver,50.36%
